system: panel of solid and haemotological tumor cell lines (e.g., Hs578t, SiHa, MDA-MB-231); assay: MTS cell proliferation assay (cytotoxicity); assay type: cell-based; conditions: Table 1 (Group 1), 72-96 hours, 10 mM lactate medium or RPMI 1640 medium, cell line not stated
Description: The anti-proliferation effect of MCT inhibition was investigated across a panel of solid and haemotological tumor cell lines. Cells were routinely cultured in their appropriate growth medium. On day 1, between 10,000-25,000 cells/well (e.g., Hs578t: 15,000 cells/well, SiHa: 10,000 cells/well, and MDA-MB-231: 25,000 cells/well) were plated into 96-well plates. 100 μL. of phosphate buffered saline solution was added to the external wells to prevent media evaporation. Plates were incubated in growth medium overnight at 37° C. in the presence of 5% CO2. On day 2, dry weight compound stocks were dissolved to a concentration of 10 mM in 100% DMSO. Compounds were further diluted in the assay medium; 10 mM lactate medium (without glucose, pyruvate, and glutamine) or RPMI 1640 medium (without pyruvate and glutamine) to generate a final dose range of 1 nM to 10 μM. Growth medium in the 96-well plate was replaced with the assay medium (10 mM lactate medium or RPMI medium or appropriate medium), and compounds were added to each well in the plate at different concentrations via serial dilution or pre-prepared solutions in assay medium. Plates were then incubated at 37° C. in the presence of 5% CO2 for a further 72-96 hours. On day 2-5, assay media was changed to 100 uL of DMEM/F12 and 20 μL of CellTiter 96 AQ MTS reagent was added to each well and the plate was returned to the incubator for 1-2 hours. MTS is bioreduced by NADPH or NADH produced by dehydrogenase enzymes in metabolically active cells into a coloured formazan product that is soluble in tissue culture medium. The amount of coloured formazan product is directly proportional to the number of living cells in culture. The absorbance of the plates was read on a Spectramax M5e plate reader using […] measurement wavelength. Dose response curves were plotted and IC50 values were calculated using GraphPad Prism. The IC50 value is equivalent to the concentration of compound that causes 50% inhibition of growth calculated from the compound treated signal to the vehicle treated signal.
Cytotoxicity of selected compounds is listed in Table 1, where IC50: A=<1 uM; B=1-10 uM; C=>10 uM; and NT=Not Tested.

Row | Structure (SMILES) | IC50
1 | COc1cc(C(=O)N(C)c2cc3oc(=O)c(C(=O)O)cc3s2)ccc1F [Compound 1.019, 2-[(4-Fluoro-3-methoxy-benzoyl)-methyl-amino]-5-oxo-5H-thieno[3,2-b]pyran-6-carboxylic acid] | < 1 µM
2 | CN(C(=O)C1CCCCC1)c1cc2oc(=O)c(C(=O)O)cc2s1 [Compound 1.010, 2-(N-methylcyclohexanecarboxamido)-5-oxo-5H-thieno[3,2-b]pyran-6-carboxylic acid] | < 1 µM
3 | CN(C(=O)C1CCOCC1)c1cc2oc(=O)c(C(=O)O)cc2s1 [Compound 1.018, 2-[Methyl-(tetrahydro-pyran-4-carbonyl)-amino]-5-oxo-5H-thieno[3,2-b]pyran-6-carboxylic acid] | < 1 µM
4 | CN(c1cc2oc(=O)c(C(=O)O)cc2s1)S(=O)(=O)c1ccc(C(F)(F)F)cc1 [Compound 1.027, 2-[Methyl-(4-trifluoromethyl-benzenesulfonyl)-amino]-5-oxo-5H-thieno[3,2-b]pyran-6-carboxylic acid] | < 1 µM
5 | COc1ccc(S(=O)(=O)N(C)c2cc3oc(=O)c(C(=O)O)cc3s2)cc1 [Compound 1.025, 2-[(4-Methoxy-benzenesulfonyl)-methyl-amino]-5-oxo-5H-thieno[3,2-b]pyran-6-carboxylic acid] | < 1 µM
6 | CN(CC1CCOCC1)c1cc2oc(=O)c(C(=O)O)cc2s1 [Compound 1.008, 2-(methyl((tetrahydro-2H-pyran-4-yl)methyl)amino)-5-oxo-5H-thieno[3,2-b]pyran-6-carboxylic acid] | < 1 µM
7 | CN(Cc1cccc(F)c1)c1cc2oc(=O)c(C(=O)O)cc2s1 [Compound 1.003, 2-((3-fluorobenzyl)(methyl)amino)-5-oxo-5H-thieno[3,2-b]pyran-6-carboxylic acid] | < 1 µM
8 | COc1ccccc1CN(C)c1cc2oc(=O)c(C(=O)O)cc2s1 [Compound 1.022, 2-[(2-Methoxy-benzyl)-methyl-amino]-5-oxo-5H-thieno[3,2-b]pyran-6-carboxylic acid] | < 1 µM
9 | COc1cccc(CN(C)c2cc3oc(=O)c(C(=O)O)cc3s2)c1 [Compound 1.004, 2-((3-methoxybenzyl)(methyl)amino)-5-oxo-5H-thieno[3,2-b]pyran-6-carboxylic acid] | < 1 µM
10 | CN(c1cc2oc(=O)c(C(=O)O)cc2s1)S(=O)(=O)c1ccc(F)cc1 [Compound 1.026, 2-[(4-Fluoro-benzenesulfonyl)-methyl-amino]-5-oxo-5H-thieno[3,2-b]pyran-6-carboxylic acid] | < 1 µM
11 | CN(Cc1cccnc1)c1cc2oc(=O)c(C(=O)O)cc2s1 [Compound 1.013, 2-(methyl(pyridin-3-ylmethyl)amino)-5-oxo-5H-thieno[3,2-b]pyran-6-carboxylic acid] | < 1 µM
12 | COc1cccc(S(=O)(=O)N(C)c2cc3oc(=O)c(C(=O)O)cc3s2)c1 [Compound 1.024, 2-[(3-Methoxy-benzenesulfonyl)-methyl-amino]-5-oxo-5H-thieno[3,2-b]pyran-6-carboxylic acid] | < 1 µM

same assay, conditions: Table 2 (Group 2), 72-96 hours, 10 mM lactate medium or RPMI 1640 medium, cell line not stated

Row | Structure (SMILES) | IC50
13 | CN(C(=O)Nc1ccc(O)cc1)c1cc2oc(=O)c(C(=O)O)cc2s1 [Compound 2.023, 2-(3-(4-hydroxyphenyl)-1-methylureido)-5-oxo-5H-thieno[3,2-b]pyran-6-carboxylic acid] | < 1 µM
14 | COc1ccc(OC)c(NC(=O)N(C)c2cc3oc(=O)c(C(=O)O)cc3s2)c1 [Compound 2.013, 2-(3-(2,5-dimethoxyphenyl)-1-methylureido)-5-oxo-5H-thieno[3,2-b]pyran-6-carboxylic acid] | < 1 µM
15 | CN(C(=O)Nc1cc(C(C)(C)C)on1)c1cc2oc(=O)c(C(=O)O)cc2s1 [Compound 2.055, 2-(3-(5-(tert-butyl)isoxazol-3-yl)-1-methylureido)-5-oxo-5H-thieno[3,2-b]pyran-6-carboxylic acid] | < 1 µM
16 | CN(C(=O)Nc1ccc(Oc2ccccc2Cl)cc1)c1cc2oc(=O)c(C(=O)O)cc2s1 [Compound 2.041, 2-(3-(4-(2-chlorophenoxy)phenyl)-1-methylureido)-5-oxo-5H-thieno[3,2-b]pyran-6-carboxylic acid] | < 1 µM
17 | COc1cc(F)ccc1NC(=O)N(C)c1cc2oc(=O)c(C(=O)O)cc2s1 [Compound 2.015, 2-(3-(4-fluoro-2-methoxyphenyl)-1-methylureido)-5-oxo-5H-thieno[3,2-b]pyran-6-carboxylic acid] | < 1 µM
18 | CN(C(=O)c1cccc(-c2ccc(F)cc2)c1)c1cc2oc(=O)c(C(=O)O)cc2s1 [Compound 2.031, 2-(4′-fluoro-N-methyl-[1,1′-biphenyl]-3-carboxamido)-5-oxo-5H-thieno[3,2-b]pyran-6-carboxylic acid] | < 1 µM
19 | CN(C(=O)Nc1cccc(F)c1)c1cc2oc(=O)c(C(=O)O)cc2s1 [Compound 2.025, 2-(3-(3-fluorophenyl)-1-methylureido)-5-oxo-5H-thieno[3,2-b]pyran-6-carboxylic acid] | < 1 µM
20 | CN(C(=O)N1CCCCC1)c1cc2oc(=O)c(C(=O)O)cc2s1 [Compound 2.045, 2-(N-methylpiperidine-1-carboxamido)-5-oxo-5H-thieno[3,2-b]pyran-6-carboxylic acid] | < 1 µM
21 | CN(C(=O)Nc1cccc2c1CCCC2)c1cc2oc(=O)c(C(=O)O)cc2s1 [Compound 2.038, 2-(1-methyl-3-(5,6,7,8-tetrahydronaphthalen-1-yl)ureido)-5-oxo-5H-thieno[3,2-b]pyran-6-carboxylic acid] | < 1 µM
22 | COc1ccc(NC(=O)N(C)c2cc3oc(=O)c(C(=O)O)cc3s2)c(OC)c1 [Compound 2.014, 2-(3-(2,4-dimethoxyphenyl)-1-methylureido)-5-oxo-5H-thieno[3,2-b]pyran-6-carboxylic acid] | < 1 µM
23 | CN(C(=O)N1CCCC1)c1cc2oc(=O)c(C(=O)O)cc2s1 [Compound 2.046, 2-(N-methylpyrrolidine-1-carboxamido)-5-oxo-5H-thieno[3,2-b]pyran-6-carboxylic acid] | < 1 µM
24 | CN(C(=O)N[C@H]1CC[C@H](C)CC1)c1cc2oc(=O)c(C(=O)O)cc2s1 [Compound 2.020, 2-(1-methyl-3-((1r,4r)-4-methylcyclohexyl)ureido)-5-oxo-5H-thieno[3,2-b]pyran-6-carboxylic acid] | < 1 µM
25 | COc1ccc(NC(=O)N(C)c2cc3oc(=O)c(C(=O)O)cc3s2)cc1OC [Compound 2.006, 2-(3-(3,4-dimethoxyphenyl)-1-methylureido)-5-oxo-5H-thieno[3,2-b]pyran-6-carboxylic acid] | < 1 µM
26 | CN(C(=O)Nc1ccccc1Cl)c1cc2oc(=O)c(C(=O)O)cc2s1 [Compound 2.001, 2-(3-(2-chlorophenyl)-1-methylureido)-5-oxo-5H-thieno[3,2-b]pyran-6-carboxylic acid] | < 1 µM
27 | CCOc1cccc(NC(=O)N(C)c2cc3oc(=O)c(C(=O)O)cc3s2)c1 [Compound 2.009, 2-(3-(3-ethoxyphenyl)-1-methylureido)-5-oxo-5H-thieno[3,2-b]pyran-6-carboxylic acid] | < 1 µM
28 | CCOc1ccc(NC(=O)N(C)c2cc3oc(=O)c(C(=O)O)cc3s2)cc1 [Compound 2.021, 2-(3-(4-ethoxyphenyl)-1-methylureido)-5-oxo-5H-thieno[3,2-b]pyran-6-carboxylic acid] | < 1 µM
29 | COc1cnccc1NC(=O)N(C)c1cc2oc(=O)c(C(=O)O)cc2s1 [Compound 2.047, 2-(3-(3-methoxypyridin-4-yl)-1-methylureido)-5-oxo-5H-thieno[3,2-b]pyran-6-carboxylic acid] | < 1 µM
30 | COc1ccccc1NC(=O)N(C)c1cc2oc(=O)c(C(=O)O)cc2s1 [Compound 2.002, 2-(3-(2-methoxyphenyl)-1-methylureido)-5-oxo-5H-thieno[3,2-b]pyran-6-carboxylic acid] | < 1 µM
31 | CCOc1ccccc1NC(=O)N(C)c1cc2oc(=O)c(C(=O)O)cc2s1 [Compound 2.010, 2-(3-(2-ethoxyphenyl)-1-methylureido)-5-oxo-5H-thieno[3,2-b]pyran-6-carboxylic acid] | < 1 µM
32 | CN(C(=O)c1cccc(-c2ccccc2)c1)c1cc2oc(=O)c(C(=O)O)cc2s1 [Compound 2.030, 2-(N-methyl-[1,1′-biphenyl]-3-carboxamido)-5-oxo-5H-thieno[3,2-b]pyran-6-carboxylic acid] | < 1 µM
33 | CN(C(=O)NC1CCCCC1)c1cc2oc(=O)c(C(=O)O)cc2s1 [Compound 2.007, 2-(3-cyclohexyl-1-methylureido)-5-oxo-5H-thieno[3,2-b]pyran-6-carboxylic acid] | < 1 µM
